Measurements from patent publication US10738028B2, “Spiro three-membered ring, spiro five-membered ring peptide deformylase inhibitor and use thereof in antibacteria and anti-tumor” (priority 2016, dated 2020).
In brackets after ≈: the same amount, converted by molar mass. Like-named read-outs stand apart in the source and are kept apart here.

Key:
[1] = test system: HCT-116 colorectal cancer cell line; test: CCK-8 proliferation inhibition; type: cell-based
Method in brief: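 Cells seeded at 2000 cells/well, cultured overnight at 37 °C, 5% CO2, then exposed to compound (DMSO; control 1‰ DMSO) for 72 h in McCoy's 5A with 10% newborn bovine serum. Viability read with 1:10 diluted CCK-8.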

[2] = test system: methemoglobin in blood samples of three healthy volunteers; test: Toxicity on methemoglobin in vitro (whole blood with S9 and NADPH, absorbance at 630 nm); type: cell-based, human; conditions: for MetHb % (n = 3): 500 μM compound, whole blood + S9 + NADPH, 5 hours at 37° C.; for probability of methemoglobin formation in blood compared with the control drugs LBM415 and GSK1322322: toxicity test in vitro, in words
Protocol: Because PDF inhibitors such as LBM415 and GSK1322322 can produce active species such as aromatic hydroxylamine and aromatic hydrazines in metabolic process, and cause human methemoglobinemia. To this end, continuous wavelength method was adopted in this invention to scan the absorption spectrum of blood samples in the wavelength range of 500 to 700 nm in the ultraviolet-visible spectrophotometer, and the contents of methemoglobin in blood samples of three healthy volunteers were calculated, after being effected by the synthesized compounds.
Experimental materials: Nicotinamide adenine dinucleotide phosphate (NADPH) reduction system: glucose-6-disodium phosphate, nicotinamide adenine dinucleoside phosphate and glucose-6-phosphate dehydrogenase (purchased from Shanghai yuanye Bio-Technology Co., Ltd) were added to 1 mL of phosphate buffer solution (PBS, pH 7.4), and the mixture was shaked in a shaker type water bath at 37° C. for 10 min, and then cooled to 0° C. Mixed human hepatocytes fraction S9 was purchased from Xenotech (20 mg S9 protein/1 mL suspension medium). Compounds were prepared to stock solution at a concentration of 50 mM, which was stored at −20° C. for use. Dapsone was used as positive control experimental reagent, which was purchased from Sigma Aldrich. 1% w/v triton X-100 was self-prepared. Blood samples were collected using Vacutainer tubes containing EDTA anticoagulants (BD, Franklin Lakes, USA), which were sampled from three healthy volunteers and used immediately after sampling.
Preparation of incubation system for blood samples and drugs: 250 μL of incubation system was consist of 220 μL of whole blood, 25 μL of S9 (final concentration: 2 mg S9 protein/mL incubation solution), 2.5 μL of NADPH form system (final concentration: 10 mM G-6-P, 1 mM NADP, 7.5 Units/mL) and 2.5 μL of stock solution of a compound (final concentration 500 μM). […] of incubation system was placed in an Eppendorf tube and incubated for 5 hours at 37° C. in water bath.
Determination of the content of methemoglobin: 60 μL of an incubated sample was taken and lysed with 3.0 mL of 1% Triton X-100. The content of methemoglobin (MetHb) was measured by an ultraviolet-visible spectrophotometer, with the Triton X-100 solution used as blank control. A sample was placed in a cuvette, 1 minute later, the spectrums of the sample in the wavelength range from 500 nm to 700 nm were recorded. The sample was added with 2 mg of potassium ferricyanide, and was allowed to stay stationary for 2 minutes for completely oxidization of ferrous iron in the sample, and standard spectrum of methemoglobin with saturated potassium ferricyanide. The percentage of methemoglobin formation (MetHb %) was obtained by the ratio of absorbance at 630 nm. MetHb %=(A′−AB′)/AM′, wherein, A′ was the total absorbance of the sample at 630 nm, AB′ was the base absorbance of the reduced blood in the sample at 630 nm, and AM′ was the absorbance of oxidized blood with saturated potassium ferricyanide at 630 nm.

[3] = test system: methicillin-resistant Staphylococcus aureus (MRSA); test: MIC, two-fold agar dilution (CLSI), clinical isolates; type: cell-based
Method in brief: (§1)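 CLSI two-fold agar dilution; MIC of test samples read per tested strain.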

[4] = test system: methicillin-resistant Staphylococcus epidermidis (MRSE); test: as above; type: cell-based
Method in brief: as §1

[5] = test system: methicillin-sensitive Staphylococcus epidermidis (MSSE); test: as above; type: cell-based
Method in brief: as §1

[6] = test system: methicillin-sensitive Staphylococcus aureus (MSSA); test: as above; type: cell-based
Method in brief: as §1

[7] = test system: Enterococcus faecalis (EFA); test: as above; type: cell-based
Method in brief: as §1

[8] = test system: Escherichia coli (including ESBLs, non-ESBLs); test: as above; type: cell-based
Method in brief: as §1

[9] = MIC in vitro anti-bacterial experiments, Gram-positive bacteria; type: cell-based; conditions: read-out: minimum inhibitory concentration against Gram-positive bacteria
Method in brief: as §1

[10] = test system: MGC-803 gastric cancer cell line; test: CCK-8 proliferation inhibition; type: cell-based; conditions: concentration of 30 μM
Method in brief: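 Cells seeded at 2000 cells/well, cultured overnight at 37 °C, 5% CO2, then exposed 72 h to compound dilutions in medium with 10% newborn bovine serum (1‰ DMSO control). Viability read with 1:10 diluted CCK-8 solution. Media: PC3 in F12; MGC-803 and Jurkat in 1640; MCF-7 in DMEM high glucose.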

[11] = test system: BEL-7402 liver cancer cell line; test: CCK-8 proliferation inhibition; type: cell-based; conditions: concentration of 30 μM, 72 hours, 30 µM
Method in brief: (§2)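 Plating at 2000 cells/well, then incubation overnight at 37° C. Next, a range of compound concentrations for 72 hours (control 1‰ DMSO). Finally, medium decanted and CCK-8 diluted 1:10 added.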

[12] = test system: A549 lung cancer cell line; test: CCK-8 proliferation inhibition; type: cell-based; conditions: Homo sapiens, A549, 72 h, concentration of 30 μM
Method in brief: as §2

[13] = strain printed MRSA 14-1 (second line of that name, r23, before MRSE 14-2)

| Compound | MetHb % (n = 3) [2] [%] | probability of methemoglobin formation in blood compared with the control drugs LBM415 and GSK1322322 [2] | MIC (anti-bacterial activity) ([3]; strain MRSA 14-1) [µg/mL] | MIC (anti-bacterial activity) ([3]; strain MRSA 14-2) [µg/mL] | MIC (anti-bacterial activity) ([3]; strain MRSA 14-4) [µg/mL] | MIC (anti-bacterial activity) ([3]; strain MRSA 14-5) [µg/mL] | MIC (anti-bacterial activity) [3, 13] [µg/mL] | MIC (anti-bacterial activity) ([4]; strain MRSE 14-2) [µg/mL] | MIC (anti-bacterial activity) ([4]; strain MRSE 14-3) [µg/mL] | MIC (anti-bacterial activity) ([4]; strain MRSE 14-4) [µg/mL] | MIC (anti-bacterial activity) ([5]; strain MSSE 14-1) [µg/mL] | MIC (anti-bacterial activity) ([5]; strain MSSE 14-2) [µg/mL] | MIC (anti-bacterial activity) ([5]; strain MSSE 14-3) [µg/mL] | MIC (anti-bacterial activity) ([5]; strain MSSE 14-4) [µg/mL] | MIC (anti-bacterial activity) ([6]; strain MSSA 14-1) [µg/mL] | MIC (anti-bacterial activity) ([6]; strain MSSA 14-2) [µg/mL] | MIC (anti-bacterial activity) ([6]; strain MSSA 14-3) [µg/mL] | MIC (anti-bacterial activity) ([6]; strain MSSA 14-4) [µg/mL] | MIC (anti-bacterial activity) ([7]; strain EFA 14-1) [µg/mL] | MIC (anti-bacterial activity) ([7]; strain EFA 14-2) [µg/mL] | other results |
| --- | --- | --- | --- | --- | --- | --- | --- | --- | --- | --- | --- | --- | --- | --- | --- | --- | --- | --- | --- | --- | --- |
| CCCC[C@H](CN(O)C=O)C(=O)N1CC2(CC2)C[C@H]1C(=O)Nc1cc(C(C)(C)C)on1 [Example 3] | 3.33 ± 0.06 | lower probability of methemoglobin formation in blood | 0.06 (≈ 0.138 µM) | 0.06 (≈ 0.138 µM) | < 0.008 | 0.06 (≈ 0.138 µM) | 0.03 (≈ 0.069 µM) | 0.03 (≈ 0.069 µM) | 0.015 (≈ 0.0345 µM) | 0.03 (≈ 0.069 µM) | 0.03 (≈ 0.069 µM) | 0.125 (≈ 0.288 µM) | 0.015 (≈ 0.0345 µM) | 0.015 (≈ 0.0345 µM) | 0.125 (≈ 0.288 µM) | 0.125 (≈ 0.288 µM) | 0.25 (≈ 0.575 µM) | 0.06 (≈ 0.138 µM) | 0.5 (≈ 1.15 µM) | 0.5 (≈ 1.15 µM) | inhibition at 30 µM ([1]; Homo sapiens, HCT-116, 72 h, read-out: HCT116 inhibition rate/%): 2%; MIC (anti-bacterial activity) ([7]; strain EFA 14-3): 0.5 µg/mL (≈ 1.15 µM); MIC (anti-bacterial activity) ([7]; strain EFA 14-5): > 128 µg/mL; MIC (anti-bacterial activity) ([8]; strain ECO+ 14-1): 1 µg/mL (≈ 2.3 µM); MIC (anti-bacterial activity) ([8]; strain ECO+ 14-2): 64 µg/mL (≈ 147 µM); MIC (anti-bacterial activity) ([8]; strain ECO− 14-1): 64 µg/mL (≈ 147 µM); MIC (anti-bacterial activity) ([8]; strain ECO− 14-2): 64 µg/mL (≈ 147 µM); MIC [9]: < 0.008 µg/mL |
| CCCC[C@H](CN(O)C=O)C(=O)N1CC2(CC2)C[C@H]1C(=O)Nc1ncc(C)s1 [Example 6] | 2.25 ± 0.02 | lower probability of methemoglobin formation in blood | < 0.008 | < 0.008 | < 0.008 | < 0.008 | < 0.008 | < 0.008 | < 0.008 | < 0.008 | < 0.008 | < 0.008 | < 0.008 | < 0.008 | < 0.008 | < 0.008 | < 0.008 | < 0.008 | 0.125 (≈ 0.306 µM) | 0.5 (≈ 1.22 µM) | inhibition at 30 µM ([10]; Homo sapiens, MGC-803, 72 h): > 50%; Inhibition of proliferation, Gastric cancer MGC-803 ([10]; 72 hours, 30 µM): 66%; Inhibition of proliferation, Liver cancer BEL-7402 [11]: 74%; inhibition at 30 µM [12]: 26%; HCT116 inhibition rate/% ([1]; concentration of 30 μM, 72 hours, CCK-8, 30 µM): 86%; MIC (anti-bacterial activity) ([7]; strain EFA 14-3): 0.5 µg/mL (≈ 1.22 µM); MIC (anti-bacterial activity) ([7]; strain EFA 14-5): 0.25 µg/mL (≈ 0.612 µM); MIC (anti-bacterial activity) ([8]; strain ECO+ 14-1): 0.125 µg/mL (≈ 0.306 µM); MIC (anti-bacterial activity) ([8]; strain ECO+ 14-2): 32 µg/mL (≈ 78.3 µM); MIC (anti-bacterial activity) ([8]; strain ECO− 14-1): 32 µg/mL (≈ 78.3 µM); MIC (anti-bacterial activity) ([8]; strain ECO− 14-2): 32 µg/mL (≈ 78.3 µM); MIC ([9]; lowest MIC reached): < 0.008 µg/mL |
